Assay results: ChEMBL document CHEMBL3286181, “Pyridopyrimidinone inhibitors of HIV-1 RNase H” (Eur J Med Chem, 2014)
≈ marks a conversion by molar mass, not a printed value. Calls of active or inactive are those of the source. The calls are words filed in the database; no cut-off is given here.

What was measured:
[1] = target: Human immunodeficiency virus type 1 reverse transcriptase (Human immunodeficiency virus 1, UniProt Q72547); experiment: Inhibition of HIV1 reverse transcriptase RNase-H activity using dATP, dCTP, dTTP, [8-3H(N)]-dGTP, oligo1, oligo 2, oligo 3 as substrate preincubated for 30 mins followed by substrate addition measured after 90 mins
[2] = target: T1, Human immunodeficiency virus type 1 integrase (Human immunodeficiency virus 1, UniProt Q7ZJM1); experiment: Inhibition of recombinant HIV1 integrase bound with donor DNA-SPA beads using [3H] target DNA as substrate assessed as strand transfer activity preincubated for 60 mins followed by substrate addition measured after 25 to 45 mins
[3] = target: Human immunodeficiency virus type 1 reverse transcriptase (Human immunodeficiency virus 1) (UniProt Q72547); experiment: Inhibition of HIV1 reverse transcriptase DNA polymerase activity up to 10 uM
[4] = test system: Human immunodeficiency virus; experiment: microbe, parasite or virus in culture; conditions: Human immunodeficiency virus 1, HEK-293T, 48 h
Description: Antiviral activity against Vesicular stomatitis virus G-pseudotyped HIV infected in human 293T cells transfected with pGJ3-Luci after 2 days by single round infectivity assay

[5] = target: T1, Human immunodeficiency virus type 1 integrase; experiment: Inhibition of HIV1 integrase strand transfer activity
Rattus norvegicus = experiment: Dose normalized AUC in Sprague-Dawley (CD) rat at 1 mg/kg, iv; type: ADME, organism-based; set-up: dose 1 mg/kg, route intravenous; conditions: in vivo
[6] = target: T1, Human immunodeficiency virus type 1 integrase; experiment: Inhibition of recombinant HIV1 N-terminal His6-tagged integrase expressed in Escherichia coli using 32P-labeled preprocessed HIV-1 U5 DNA as substrate assessed as strand transfer activity after 2 hrs by densitometric analysis
[7] = Inhibition of HIV1 reverse transcriptase strand transfer activity
[8] = Solubility of the compound by chemiluminescent nitrogen detection method; type: physicochemical
[9] = Permeability across MDCK cells; type: ADME, cell-based, Canis lupus familiaris; conditions: dog, read-out: permeability
[10] = Clearance in Sprague-Dawley (CD) rat at 1 mg/kg, iv relative to hepatic blood flow; type: ADME, organism-based, Liver; set-up: dose 1 mg/kg, route intravenous; conditions: in vivo, read-out: CLH
[11] = Half life in Sprague-Dawley (CD) rat at 1 mg/kg, iv and 5 mg/kg, po; type: ADME, organism-based; conditions: in vivo
[12] = target: T1, Human immunodeficiency virus type 1 integrase; experiment: Inhibition of HIV1 integrase bound with donor DNA-SPA beads using 3'-end fluorescein isothiocyanate labeled target DNA as substrate assessed as strand transfer activity incubated prior to substrate addition

T1 sequence (Q7ZJM1 whole entry): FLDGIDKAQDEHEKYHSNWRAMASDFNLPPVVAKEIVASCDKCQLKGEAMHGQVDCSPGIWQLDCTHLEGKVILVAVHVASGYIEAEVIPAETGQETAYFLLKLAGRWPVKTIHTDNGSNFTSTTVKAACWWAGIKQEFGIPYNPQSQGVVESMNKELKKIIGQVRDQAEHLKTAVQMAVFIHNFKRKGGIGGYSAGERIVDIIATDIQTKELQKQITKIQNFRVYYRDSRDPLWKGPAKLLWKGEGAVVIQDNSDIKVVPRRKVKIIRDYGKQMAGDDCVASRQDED

SMILES | IC50 [1] | IC50 [2] | inhibition [3] | IC50 [4] | AUC/dose (Rattus norvegicus) | other results
O=c1nc(NCc2cccc(N3CCOCC3)c2)c2cccnc2n1O | 0.2 µM | 1.99 µM | inactive | 0.38 µM |  | 
O=C1Cc2ccccc2C(=O)N1O |  |  |  |  |  | IC50 [5]: > 5000 µM
O=c1nc(NCc2ccc(F)cc2)c2cccnc2n1O | 0.158 µM | 3.16 µM | inactive |  |  | 
O=c1nc(NCc2cccc(CN3CCOCC3)c2)c2cccnc2n1O | 0.398 µM | 15.9 µM | inactive | 0.3 µM |  | 
O=c1nc(Nc2ccc(-c3ccccc3)cc2)c2cccnc2n1O |  | 0.79 µM | inactive |  | 2934 ng·h/mL/mg | 
O=C(NCc1ccc(Cl)cc1)c1ncc2cccnc2c1O |  |  |  |  |  | IC50 [6]: 20 µM; IC50 [7]: 0.135 µM
O=c1nc(NCc2ccc(-c3ccccc3)cc2)c2cccnc2n1O | 0.01 µM | 0.63 µM | inactive |  |  | 
O=c1nc(Nc2ccc(CN3CCOCC3)cc2)c2cccnc2n1O | 0.2 µM | 1.3 µM | inactive | 0.16 µM | 226 ng·h/mL/mg | solubility [8]: 503 µM (≈ 178 µg/mL); Papp [9]: 0.5 ×10⁻⁶ cm/s; clearance [10]: 70 mL/min/kg; half-life [11]: 0.4 h
O=c1nc(NCc2ccc(N3CCOCC3)cc2)c2cccnc2n1O | 0.1 µM | 1.58 µM | inactive | 0.47 µM | 713 ng·h/mL/mg | solubility [8]: 293 µM (≈ 104 µg/mL); Papp [9]: 1.4 ×10⁻⁶ cm/s; clearance [10]: 55 mL/min/kg; half-life [11]: 4.5 h
O=c1nc(N2CCC(F)(F)CC2)c2cccnc2n1O | 0.501 µM | 7.94 µM | inactive |  |  | 
O=c1nc(NCC2CC2)c2cccnc2n1O | 0.398 µM | 3.9 µM |  | 0.71 µM |  | 
O=c1nc(NCc2ccc(-c3ccncc3)cc2)c2cccnc2n1O | 0.016 µM | 1.26 µM | inactive |  | 1000 ng·h/mL/mg | 
O=c1nc(Nc2ccc(-c3ccncc3)cc2)c2cccnc2n1O | 0.079 µM | 1.99 µM | inactive |  | 1942 ng·h/mL/mg | 
O=C(NCc1ccc(F)cc1)c1nc(N2CCCCS2(=O)=O)c2cccnc2c1O |  |  |  |  |  | IC50 [12]: 10 µM
O=c1nc(Nc2ccc(N3CCOCC3)cc2)c2cccnc2n1O | 0.05 µM | 0.5 µM | inactive | 0.25 µM | 314 ng·h/mL/mg | solubility [8]: 161 µM (≈ 54.6 µg/mL); Papp [9]: 0.7 ×10⁻⁶ cm/s; clearance [10]: 45 mL/min/kg; half-life [11]: 2.4 h
